Results on 7 molecules are retold here after patent US20060142279A1 (priority 2004, published 2006).

For data set [1], the system named is dormant M. bovis BCG, expressing the luciferase gene on plasmid pSMT1. The class given is cell-based, Mycobacterium bovis. The settings on record: 7 days of anaerobiosis, then 5 days in drug free medium.
Data set [2] relates to dormant Mycobacterium bovis BCG. Format: cell-based.
For data set [3], the system named is dormant Mycobacterium tuberculosis (H37RV). As to the kind of experiment: Wayne dormancy model, CFU assay. Conditions: for reduction of the dormant bacteria (CFU compared to untreated control): drug added after 14 days, cultures collected after 22 days.

Where two headings read alike, the source gives them in different places.

Usually melting point stands for the temperature, or range, at which the solid turns liquid. As for `COc1nc2ccc(Br)cc2cc1C(c1ccccc1)C(O)(CCN(C)C)c1ccccc1` (stereo not drawn), the melting point was 84 °C.
Regarding `COc1nc2ccc(Br)cc2cc1[C@@H](c1ccccc1)[C@@](O)(CCN(C)C)c1cccc2ccccc12` [Compound 12, (αS, βR)-6-bromo-α-[2-(dimethylamino)ethyl]-2-methoxy-α-1-naphthalenyl-β-phenyl-3-quinolineethanol], the “killing of dormant bacteria as compared to untreated control (Luciferase counts, RLU)” value is recorded as “about 0.5 log10” in data set [1] (0.1 μg/ml) and ~2 log10 in data set [1] (1 μg/ml). The “reduction in bacterial survival as compared to untreated control (Luciferase counts, RLU)” value in data set [1] (10 μg/ml) is listed as “approximately 4 log10”. In addition, the “reduction in CFU counts compared with untreated control” value is ~0.5 log10 in data set [2] (0.1 μg/ml, day 2 after anaerobiosis); ~1.1 log10 in data set [2] (0.1 μg/ml, day 5 after anaerobiosis); ~2.3 log10 in data set [2] (1 μg/ml, day 2 after anaerobiosis); ~4.7 log10 in data set [2] (1 μg/ml, day 5 after anaerobiosis); “approximately 4 log10” in data set [2] (10 μg/ml, day 2 after anaerobiosis); “about 6 log10” in data set [2] (10 μg/ml, day 5 after anaerobiosis). For the same molecule, the “reduction of the dormant bacteria (CFU compared to untreated control)” value (shortened to “reduction of the dormant bacteria”) in data set [3] (1 μg/ml) was found to be 1.41 log10.
For the molecule `COc1nc2ccc(Br)cc2cc1C(c1ccc(C)cc1)C(O)(CCN(C)C)c1cccc2ccccc12` (stereo not drawn) [Compound 71], the results for the “reduction of the dormant bacteria” value in data set [3] (1 μg/ml) and in data set [3] (10 μg/ml) were 1.55 log10 and “more than 2 log10”, respectively.
For `COc1nc2ccc(Br)cc2cc1C(c1ccccc1)C(O)(CCN(C)C)c1ccc2c(c1)OCO2` (stereo not drawn) [Compound 75], in that order: 0.87 log10 and 1.14 log10.
Regarding `COc1nc2ccc(Br)cc2cc1C(c1ccccc1)C(O)(CCn1cncn1)c1cccc2ccccc12` (stereo not drawn) [Compound 172], the “reduction of the dormant bacteria” value was found to be 0.29 log10 in data set [3] (1 μg/ml) and 0.98 log10 in data set [3] (10 μg/ml).
For `NNC(=O)c1ccncc1` [Isoniazid, reference compound], the “effect on dormant bacteria (Luciferase counts), in words” value in data set [1] (10 μg/ml) is on record as “no effect”. In data set [3] (10 μg/ml), the “effect on dormant bacteria, in words” value was “did not have any effect”.
Turning to `Cc1ncc([N+](=O)[O-])n1CCO` [metronidazole, reference compound], in data set [1] (10 μg/ml), the “reduction in bacterial survival as compared to untreated control (Luciferase counts, RLU)” value was 2 log10. In addition, the “effect on dormant bacteria, in words” value in data set [3] (100 μg/ml, added at start) is listed as “good efficacy”.
